Measured values: PMC2809336, “Antidepressant Interactions with the NMDA NR1-1b Subunit” (Journal of Biophysics, 2008)
“Also recorded” adds a separate entry of the source.

Molecular target: T1, NMDA NR1-1b S1S2 domain (Rattus norvegicus, UniProt P35439)
T1 construct: (His)8-TSG-LVPRG(thrombin cut site)-S1(394-544)-GT-S2(663-800); (His)8-TSG-LVPRG (His8 tag with thrombin cut site) (N); made in house; host or cells: E. coli Origami B(DE3)
Test: Extrinsic ANS fluorescence
Type: binding
Settings: ANS 1 : 1 with 5.29 μM NR1-1b S1S2, excitation 380 nm; drug concentrations as in Figure 4
Procedure: Extrinsic fluorescence studies were performed in a Cary Ec-lipse fluorometer at 25°C. All emission scans were acquired from 400 to 600 nm after excitation at 380 nm with 20 nm slit widths for emission and excitation in a 10 mm-path-length cell. Before data acquisition, samples were incubated for thirty seconds in the sample holder at 25°C. Blanks were collected both for the antidepressants and the NR1-1b S1S2 domain. Three emission spectra of identicallyprepared samples were averaged for each plot. 8-Anilino-1-naphthalenesulfonic acid (ANS, TCI America), in a 1 : 1 molar ratio, was added to 5.29 μM of the NR1-1b S1S2 domain premixed with antidepressant (at final concentrations as above for intrinsic quenching studies in addition to the SSRIs fluoxetine (8.62 μM) and fluvoxamine (2.81 mM) and the SNRI venlafaxine (29.07 μM)). As with all intrinsic assays, total methanol concentration was kept at 1.8%. Plots of intensity versus wavelength were constructed from averaged emission spectra.

T1 sequence (P35439 394-544): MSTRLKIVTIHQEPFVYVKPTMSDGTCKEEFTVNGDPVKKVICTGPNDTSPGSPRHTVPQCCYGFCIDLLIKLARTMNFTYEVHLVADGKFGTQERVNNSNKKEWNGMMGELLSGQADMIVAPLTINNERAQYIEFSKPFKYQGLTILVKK
T1 sequence (P35439 663-800): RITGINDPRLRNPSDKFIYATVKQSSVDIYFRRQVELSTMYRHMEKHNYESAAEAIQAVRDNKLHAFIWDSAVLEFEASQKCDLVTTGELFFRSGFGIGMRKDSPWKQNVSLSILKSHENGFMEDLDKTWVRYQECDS

Structure (SMILES) | ANS emission spectrum of the NR1-1b S1S2 complex versus ANS bound to apo S1S2 (binding)
COCCCC/C(=N\OCCN)c1ccc(C(F)(F)F)cc1 [fluvoxamine] | significantly different
CNCCC(Oc1ccc(C(F)(F)F)cc1)c1ccccc1 (centres unmarked) [fluoxetine] | confirmed the binding
Fc1ccc([C@@H]2CCNC[C@H]2COc2ccc3c(c2)OCO3)cc1 [paroxetine] | significantly different
CC(CN(C)C)CN1c2ccccc2CCc2ccccc21 (centres unmarked) [trimipramine] | significantly different
CNCCCC12CCC(c3ccccc31)c1ccccc12 [maprotiline] | significantly different
COc1ccc(C(CN(C)C)C2(O)CCCCC2)cc1 (centres unmarked) [venlafaxine] | confirmed the binding

Molecular target: T1, NMDA NR1-1b S1S2 domain
Test: Kd determination by intrinsic tryptophan fluorescence (double reciprocal, Benesi-Hildebrand plot)
Type: binding
Settings: 5.29 μM NR1-1b S1S2, buffer 3 pH 6.5, 25°C, error at 95% confidence level
Procedure: (§1) Intrinsic fluorescence studies were performed in a Cary Eclipse fluorometer at 25°C. All emission scans were acquired from 300 to 400 nm upon excitation at 290 nm, with 10 nm excitation and emission slit widths in a 10 mm-path-length cell. Excitation was performed at 290 nm to minimize interference from both tyrosine residues in the NMDA NR1-1b S1S2 domain as well as the aromatic antidepressants being studied. Before data acquisition, samples were incubated for thirty seconds in the sample holder at 25°C. […] Thus, data was reported without a buffer subtraction.
(§2) Protein samples were at a final concentration of 5.29 μM in buffer 3 (10 mM MES, pH 6.5, 25 mM NaCl, 1 mM glycine). All antidepressants were solubilized in 100% methanol to the highest attainable concentrations. To account for any effects methanol had on fluorescence intensity, protein spectra with methanol were collected, allowing direct comparison between samples with and without antidepressant. Each data set consisted of at least three independent emission spectra of identically prepared samples. The data is reported with error determined at the 95% confidence level.
A double reciprocal plot was used to determine Kd, which derives from the Benesi-Hildebrand relationship, provided there is a 1 : 1 binding stoichiometry. […] When 1/ΔF is plotted against 1/[L], a linear relationship exists. The intercept on the x-axis is − K d.. […]

Structure (SMILES) | Kd
CC(CN(C)C)CN1c2ccccc2CCc2ccccc21 (centres unmarked) [trimipramine] | 1090 ± 240 µM

Molecular target: T1, NMDA NR1-1b S1S2 domain
Test: Stern-Volmer analysis, acrylamide quenching of tryptophan fluorescence
Type: binding
Settings: acrylamide 16.3 to 113.9 mM, 5.29 μM NR1-1b S1S2 premixed with antidepressant; apo 1.61
From the text: Plots of (F 0/F) −1 versus acrylamide concentration were constructed.

Structure (SMILES) | K sv
COCCCC/C(=N\OCCN)c1ccc(C(F)(F)F)cc1 [fluvoxamine] | 3.77 M⁻¹
Fc1ccc([C@@H]2CCNC[C@H]2COc2ccc3c(c2)OCO3)cc1 [paroxetine] | 3.06 M⁻¹
CC(CN(C)C)CN1c2ccccc2CCc2ccccc21 (centres unmarked) [trimipramine] | 3.02 M⁻¹
CNCCCC12CCC(c3ccccc31)c1ccccc12 [maprotiline] | 5.92 M⁻¹
CNCCCN1c2ccccc2CCc2ccccc21 [desipramine] | 2.67 M⁻¹

Molecular target: T1, NMDA NR1-1b S1S2 domain
Test: Intrinsic tryptophan fluorescence quenching and λ max of emission
Type: binding
Settings: concentrations as high as 5.21 mM
Procedure: as §1
as §2, with “All” for “Protein samples were at a final concentration of 5.29 μM in buffer 3 (10 mM MES, pH 6.5, 25 mM NaCl, 1 mM glycine). All”
The fluorescence intensity of the NR1-1b S1S2 domain was determined in the presence and absence of eachantidepressant with the appropriate blank subtraction. […] For all samples, the final concentration of methanol was kept at 1.8%.

Structure (SMILES) | Binding to NR1-1b S1S2 in intrinsic and extrinsic fluorescence assays
CN(C)CCCC1(c2ccc(F)cc2)OCc2cc(C#N)ccc21 (centres unmarked) [citalopram] | no binding

Same assay, conditions: concentrations as high as 5.21 mM; listed as Citalopram

Structure (SMILES) | Binding to NR1-1b S1S2 in intrinsic and extrinsic fluorescence assays
CN(C)CCCC1(c2ccc(F)cc2)OCc2cc(C#N)ccc21 (centres unmarked) [citalopram] | no evidence of binding

Same assay, conditions: desipramine, trimipramine, imipramine 137 μM; maprotiline 3.18 mM; nortriptyline 2.08 mM; paroxetine 3.75 mM; sertraline 1.88 mM; fluvoxamine 2.81 mM

Structure (SMILES) | Binding to NR1-1b S1S2 by intrinsic tryptophan fluorescence
COCCCC/C(=N\OCCN)c1ccc(C(F)(F)F)cc1 [fluvoxamine] | binding
CNCCC(Oc1ccc(C(F)(F)F)cc1)c1ccccc1 (centres unmarked) [fluoxetine] | neither of which showed binding
Fc1ccc([C@@H]2CCNC[C@H]2COc2ccc3c(c2)OCO3)cc1 [paroxetine] | binding
CC(CN(C)C)CN1c2ccccc2CCc2ccccc21 (centres unmarked) [trimipramine] | binding
CNCCCC12CCC(c3ccccc31)c1ccccc12 [maprotiline] | binding
CNCCCN1c2ccccc2CCc2ccccc21 [desipramine] | binding
CN(C)CCCC1(c2ccc(F)cc2)OCc2cc(C#N)ccc21 (centres unmarked) [citalopram] | did not
COc1ccc(C(CN(C)C)C2(O)CCCCC2)cc1 (centres unmarked) [venlafaxine] | did not; also recorded: neither of which showed binding

Same assay, conditions: excitation 290 nm, 25°C; apo 326.24 nm; drug at final quenching concentration

Structure (SMILES) | λ max of the NR1-1b drug bound complex
COCCCC/C(=N\OCCN)c1ccc(C(F)(F)F)cc1 [fluvoxamine] | 328.57 nm
Fc1ccc([C@@H]2CCNC[C@H]2COc2ccc3c(c2)OCO3)cc1 [paroxetine] | 328.3 nm
CC(CN(C)C)CN1c2ccccc2CCc2ccccc21 (centres unmarked) [trimipramine] | 327.27 nm
CNCCCC12CCC(c3ccccc31)c1ccccc12 [maprotiline] | 322.04 ± 1.83 nm
CNCCCN1c2ccccc2CCc2ccccc21 [desipramine] | 326.77 nm

Same assay, conditions: excitation 290 nm, 25°C; apo 326.24 nm; drug at final quenching concentration; listed as Maprotiline

Structure (SMILES) | λ max of the NR1-1b drug bound complex
CNCCCC12CCC(c3ccccc31)c1ccccc12 [maprotiline] | 322.04 nm

Same assay, conditions: intensity versus apo NR1-1b S1S2

Structure (SMILES) | Change of tryptophan fluorescence emission upon binding
CNCCCC12CCC(c3ccccc31)c1ccccc12 [maprotiline] | increases, rather than quenches
